From ChEMBL document CHEMBL1141984, “Carbonic anhydrase inhibitors. Inhibition of the transmembrane isozyme XII with sulfonamides-a new target for the design of antitumor and antiglaucoma drugs?” (Bioorg Med Chem Lett, 2005)

Molecular target: Carbonic anhydrase 12 (Homo sapiens, UniProt O43570)
Sequence (O43570 whole entry): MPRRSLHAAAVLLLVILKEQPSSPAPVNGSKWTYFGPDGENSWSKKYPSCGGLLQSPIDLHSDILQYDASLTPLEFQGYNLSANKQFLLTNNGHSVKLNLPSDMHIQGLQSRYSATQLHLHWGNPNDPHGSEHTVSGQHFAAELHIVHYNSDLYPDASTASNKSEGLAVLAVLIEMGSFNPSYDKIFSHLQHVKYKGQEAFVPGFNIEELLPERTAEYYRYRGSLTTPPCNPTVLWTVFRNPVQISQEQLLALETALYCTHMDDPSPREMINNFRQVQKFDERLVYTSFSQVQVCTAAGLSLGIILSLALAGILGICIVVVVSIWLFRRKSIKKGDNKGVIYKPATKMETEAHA

Compound	Ki
CNc1ccc(S(N)(=O)=O)cc1	37 nM
NNc1ccccc1S(N)(=O)=O	58 nM
N[S+]([O-])c1ccc(S(=O)(=O)Nc2cccc3c(Cl)c[nH]c23)cc1 (stereo not given)	3.4 nM
CN(N)c1ccc(S(N)(=O)=O)cc1	11 nM
Nc1ccc(S(=O)(=O)NCc2ccc(S(N)(=O)=O)cc2)cc1	3.5 nM
Nc1ccc(S(N)(=O)=O)cc1I	11 nM
Nc1ccc(S(=O)(=O)Nc2nnc(S(N)(=O)=O)s2)cc1	85 nM
NS(=O)(=O)c1nnc(-c2ccccc2Cl)s1	36 nM
Nc1nccc(Nc2ccc(S(N)(=O)=O)cc2)n1	3.4 nM
Nc1ccccc1S(N)(=O)=O	0.85 nM
Nc1ccc(S(N)(=O)=O)cc1Br	20 nM
Cn1nc(S(N)(=O)=O)sc1=N	4 nM
NS(=O)(=O)c1ccc(CCO)cc1	55 nM
Nc1ccc(S(N)(=O)=O)cc1F	1.1 nM
NS(=O)(=O)c1ccc(CO)cc1	220 nM
Nc1ccc(S(N)(=O)=O)cc1Cl	3.1 nM
Nc1ccc(S(=O)(=O)NCCc2ccc(S(N)(=O)=O)cc2)cc1	4.5 nM
NS(=O)(=O)c1ccc(C(=O)O)cc1 [CARZENIDE]	34 nM
NCc1ccc(S(N)(=O)=O)cc1 [MAFENIDE]	0.3 nM
Cc1ccc(S(N)(=O)=O)cc1 [P-TOLUENESULFONAMIDE]	1.8 nM
